Results: US20240158446A1, “CYCLIC COMPOUND HAVING SELECTIVE INHIBITORY ACTION ON KRAS OVER HRAS AND NRAS” (CHUGAI SEIYAKU KABUSHIKI KAISHA, priority 2021, published 2024)
Where a SMILES comes first, the peptide text is derived from it. Bridges are numbered along the chain shown (N, C = ends). [ ]: non-standard residue; d: D form. The star is where a group is joined. hPhe(3-Cl-4-CF3) = N[C@@H](CCc1ccc(C(F)(F)F)c(Cl)c1)C(=O)O; NPrPhe(4-CF3) = CCCN[C@@H](Cc1ccc(C(F)(F)F)cc1)C(=O)O; NMeGly(cPent) = CN[C@H](C(=O)O)C1CCCC1; Pro(4,4-F2) = O=C(O)[C@@H]1CC(F)(F)CN1; Hyp = O=C(O)[C@@H]1C[C@@H](O)CN1; NMeD = CN[C@@H](CC(=O)O)C(=O)O; NMeL = CN[C@@H](CC(C)C)C(=O)O; N(Me)CH2CH2OMe = COCCN(C)*; Morpholide = C1CN(*)CCO1; Ac5c = NC1(C(=O)O)CCCC1; Aze = O=C(O)[C@@H]1CCN1; Ac4c = NC1(C(=O)O)CCC1; NEtG = CCNCC(=O)O; Sar = CNCC(=O)O

Columns and labels:
[1] = biological target: GDP-bound KRAS wild-type protein (Homo sapiens, UniProt P01116); assay: Binding to KRAS by surface plasmon resonance (SPR), Single Cycle Kinetics; conditions: SPR Single Cycle Kinetics, GDP-bound KRAS wild-type protein, 1:1 binding model; read-out: KRAS KD
GDP-bound KRAS wild-type protein, sequence (P01116 whole entry): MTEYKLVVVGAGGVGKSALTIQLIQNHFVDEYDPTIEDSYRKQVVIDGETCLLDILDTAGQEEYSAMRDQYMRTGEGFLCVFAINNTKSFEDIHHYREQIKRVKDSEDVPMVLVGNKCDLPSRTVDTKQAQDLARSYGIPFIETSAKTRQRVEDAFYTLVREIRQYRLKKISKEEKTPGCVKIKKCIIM

[2] = biological target: GDP-bound NRAS wild-type protein (Homo sapiens, UniProt P01111); assay: Binding to NRAS by surface plasmon resonance (SPR), Single Cycle Kinetics; conditions: SPR, GDP-bound NRAS wild-type protein vs GDP-bound KRAS wild-type protein
GDP-bound NRAS wild-type protein, sequence (P01111 whole entry): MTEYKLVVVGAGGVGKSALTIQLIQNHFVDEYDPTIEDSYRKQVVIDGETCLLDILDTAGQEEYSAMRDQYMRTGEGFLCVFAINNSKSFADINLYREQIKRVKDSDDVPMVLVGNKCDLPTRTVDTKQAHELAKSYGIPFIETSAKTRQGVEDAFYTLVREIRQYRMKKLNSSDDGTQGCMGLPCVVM

[3] = biological target: GDP-bound HRAS wild-type protein (Homo sapiens, UniProt P01112); assay: Binding to HRAS by surface plasmon resonance (SPR), Single Cycle Kinetics; conditions: SPR, GDP-bound HRAS wild-type protein vs GDP-bound KRAS wild-type protein
GDP-bound HRAS wild-type protein, sequence (P01112 whole entry): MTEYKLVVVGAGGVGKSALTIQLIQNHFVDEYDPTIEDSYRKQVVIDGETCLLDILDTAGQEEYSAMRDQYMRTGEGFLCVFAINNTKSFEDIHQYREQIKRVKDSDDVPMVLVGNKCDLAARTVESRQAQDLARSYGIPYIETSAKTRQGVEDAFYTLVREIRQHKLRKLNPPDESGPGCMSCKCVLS

Row | SMILES | Kd [1] [pM] | NRAS/KRAS (ratio of KD value for NRAS to KD value for KRAS) [2] | HRAS/KRAS (ratio of KD value for HRAS to KD value for KRAS) [3]
1 | CCCN1C(=O)[C@@H]2CCN2C(=O)CN(C)C(=O)[C@H]([C@@H](C)CC)NC(=O)[C@H](CC(C)C)N(C)C(=O)C[C@@H](C(=O)N(C)C)NC(=O)[C@H](C2CCCC2)N(C)C(=O)C2(CCCC2)NC(=O)[C@@H]2CC(F)(F)CN2C(=O)[C@H](CCc2ccc(C(F)(F)F)c(Cl)c2)NC(=O)CN(C)C(=O)[C@@H]1Cc1ccc(C(F)(F)F)cc1 [PP0387] ([NMeL]I[Sar][Aze][NPrPhe(4-CF3)][Sar][hPhe(3-Cl-4-CF3)][Pro(4,4-F2)][Ac5c][NMeGly(cPent)]D-NMe2; lactam N-11) | 540 | C (A compound having a KD ratio of 0.1 or more and less than 3 is denoted as C) | B (a compound having 3 or more and less than 10 is denoted as B)
2 | CCCN1C(=O)[C@@H]2CCN2C(=O)CN(C)C(=O)[C@H]([C@@H](C)CC)NC(=O)[C@H](CC(C)C)N(C)C(=O)C[C@@H](C(=O)N(C)C)NC(=O)[C@H](C2CCCC2)N(C)C(=O)C2(CCC2)NC(=O)[C@@H]2CC(F)(F)CN2C(=O)[C@H](CCc2ccc(C(F)(F)F)c(Cl)c2)NC(=O)CN(C)C(=O)[C@@H]1Cc1ccc(C(F)(F)F)cc1 [PP0388] ([NMeL]I[Sar][Aze][NPrPhe(4-CF3)][Sar][hPhe(3-Cl-4-CF3)][Pro(4,4-F2)][Ac4c][NMeGly(cPent)]D-NMe2; lactam N-11) | 780 | C (A compound having a KD ratio of 0.1 or more and less than 3 is denoted as C) | B (a compound having 3 or more and less than 10 is denoted as B)
3 | CCCN1C(=O)[C@@H]2CCN2C(=O)CN(C)C(=O)[C@H]([C@@H](C)CC)NC(=O)[C@H](CC(C)C)N(C)C(=O)C[C@@H](C(=O)N(C)C)NC(=O)[C@H](C2CCCC2)N(C)C(=O)C2(CCCC2)NC(=O)[C@@H]2C[C@@H](OCC)CN2C(=O)[C@H](CCc2ccc(C(F)(F)F)c(Cl)c2)NC(=O)CN(C)C(=O)[C@@H]1Cc1ccc(C(F)(F)F)cc1 [PP0389] ([NMeL]I[Sar][Aze][NPrPhe(4-CF3)][Sar][hPhe(3-Cl-4-CF3)][Hyp](Et)[Ac5c][NMeGly(cPent)]D-NMe2; lactam N-11) | 160 | C (A compound having a KD ratio of 0.1 or more and less than 3 is denoted as C) | B (a compound having 3 or more and less than 10 is denoted as B)
4 | CCCN1C(=O)[C@@H]2CCN2C(=O)CN(C)C(=O)[C@H]([C@@H](C)CC)NC(=O)[C@H](CC(C)C)N(C)C(=O)C[C@@H](C(=O)N(C)C)NC(=O)[C@H](C2CCCC2)N(C)C(=O)C2(CCC2)NC(=O)[C@@H]2C[C@@H](OCC)CN2C(=O)[C@H](CCc2ccc(C(F)(F)F)c(Cl)c2)NC(=O)CN(C)C(=O)[C@@H]1Cc1ccc(C(F)(F)F)cc1 [PP0390] ([NMeL]I[Sar][Aze][NPrPhe(4-CF3)][Sar][hPhe(3-Cl-4-CF3)][Hyp](Et)[Ac4c][NMeGly(cPent)]D-NMe2; lactam N-11) | 200 | C (A compound having a KD ratio of 0.1 or more and less than 3 is denoted as C) | B (a compound having 3 or more and less than 10 is denoted as B)
5 | CCCN1C(=O)CN(C)C(=O)CN(C)C(=O)[C@H]([C@@H](C)CC)NC(=O)[C@H](CC(C)C)N(C)C(=O)C[C@@H](C(=O)N(C)CCOC)N(C)C(=O)[C@H](C2CCCC2)N(C)C(=O)C2(CCCC2)NC(=O)[C@@H]2CCCN2C(=O)[C@H](CCc2ccc(C(F)(F)F)c(Cl)c2)NC(=O)CN(C)C(=O)[C@@H]1Cc1ccc(C(F)(F)F)cc1 [PP0391] ([NMeL]I[Sar][Sar][NPrPhe(4-CF3)][Sar][hPhe(3-Cl-4-CF3)]P[Ac5c][NMeGly(cPent)][NMeD]-{N(Me)CH2CH2OMe}; lactam N-11) | 92 | B (a compound having 3 or more and less than 10 is denoted as B) | B (a compound having 3 or more and less than 10 is denoted as B)
6 | CCCN1C(=O)CN(C)C(=O)CN(C)C(=O)[C@H]([C@@H](C)CC)NC(=O)[C@H](CC(C)C)N(C)C(=O)C[C@@H](C(=O)N2CCOCC2)N(C)C(=O)[C@H](C2CCCC2)N(C)C(=O)C2(CCC2)NC(=O)[C@@H]2C[C@@H](OCC)CN2C(=O)[C@H](CCc2ccc(C(F)(F)F)c(Cl)c2)NC(=O)CN(C)C(=O)[C@@H]1Cc1ccc(C(F)(F)F)cc1 [PP0392] ([NMeL]I[Sar][Sar][NPrPhe(4-CF3)][Sar][hPhe(3-Cl-4-CF3)][Hyp](Et)[Ac4c][NMeGly(cPent)][NMeD]-Morpholide; lactam N-11) | 67 | B (a compound having 3 or more and less than 10 is denoted as B) | C (A compound having a KD ratio of 0.1 or more and less than 3 is denoted as C)
7 | CCCN1C(=O)CN(C)C(=O)CNC(=O)[C@H]([C@@H](C)CC)NC(=O)[C@H](CC(C)C)N(C)C(=O)C[C@@H](C(=O)N2CCOCC2)N(C)C(=O)[C@H](C2CCCC2)N(C)C(=O)C2(CCC2)NC(=O)[C@@H]2CCCN2C(=O)[C@H](CCc2ccc(C(F)(F)F)c(Cl)c2)NC(=O)CN(C)C(=O)[C@@H]1Cc1ccc(C(F)(F)F)cc1 [PP0393] ([NMeL]IG[Sar][NPrPhe(4-CF3)][Sar][hPhe(3-Cl-4-CF3)]P[Ac4c][NMeGly(cPent)][NMeD]-Morpholide; lactam N-11) | 110 | B (a compound having 3 or more and less than 10 is denoted as B) | B (a compound having 3 or more and less than 10 is denoted as B)
8 | CCCN1C(=O)CN(C)C(=O)CNC(=O)[C@H]([C@@H](C)CC)NC(=O)[C@H](CC(C)C)N(C)C(=O)C[C@@H](C(=O)N2CCOCC2)N(C)C(=O)[C@H](C2CCCC2)N(C)C(=O)C2(CCCC2)NC(=O)[C@@H]2CC(F)(F)CN2C(=O)[C@H](CCc2ccc(C(F)(F)F)c(Cl)c2)NC(=O)CN(C)C(=O)[C@@H]1Cc1ccc(C(F)(F)F)cc1 [PP0394] ([NMeL]IG[Sar][NPrPhe(4-CF3)][Sar][hPhe(3-Cl-4-CF3)][Pro(4,4-F2)][Ac5c][NMeGly(cPent)][NMeD]-Morpholide; lactam N-11) | 240 | C (A compound having a KD ratio of 0.1 or more and less than 3 is denoted as C) | C (A compound having a KD ratio of 0.1 or more and less than 3 is denoted as C)
9 | CCCN1C(=O)CN(C)C(=O)CNC(=O)[C@H]([C@@H](C)CC)NC(=O)[C@H](CC(C)C)N(C)C(=O)C[C@@H](C(=O)N2CCOCC2)N(C)C(=O)[C@H](C2CCCC2)N(C)C(=O)C2(CCC2)NC(=O)[C@@H]2CC(F)(F)CN2C(=O)[C@H](CCc2ccc(C(F)(F)F)c(Cl)c2)NC(=O)CN(C)C(=O)[C@@H]1Cc1ccc(C(F)(F)F)cc1 [PP0395] ([NMeL]IG[Sar][NPrPhe(4-CF3)][Sar][hPhe(3-Cl-4-CF3)][Pro(4,4-F2)][Ac4c][NMeGly(cPent)][NMeD]-Morpholide; lactam N-11) | 68 | B (a compound having 3 or more and less than 10 is denoted as B) | C (A compound having a KD ratio of 0.1 or more and less than 3 is denoted as C)
10 | CCCN1C(=O)CN(C)C(=O)CNC(=O)[C@H]([C@@H](C)CC)NC(=O)[C@H](CC(C)C)N(C)C(=O)C[C@@H](C(=O)N2CCOCC2)N(C)C(=O)[C@H](C2CCCC2)N(C)C(=O)C2(CCCC2)NC(=O)[C@@H]2C[C@@H](OCC)CN2C(=O)[C@H](CCc2ccc(C(F)(F)F)c(Cl)c2)NC(=O)CN(C)C(=O)[C@@H]1Cc1ccc(C(F)(F)F)cc1 [PP0396] ([NMeL]IG[Sar][NPrPhe(4-CF3)][Sar][hPhe(3-Cl-4-CF3)][Hyp](Et)[Ac5c][NMeGly(cPent)][NMeD]-Morpholide; lactam N-11) | 130 | B (a compound having 3 or more and less than 10 is denoted as B) | C (A compound having a KD ratio of 0.1 or more and less than 3 is denoted as C)
11 | CCCN1C(=O)CN(C)C(=O)CNC(=O)[C@H]([C@@H](C)CC)NC(=O)[C@H](CC(C)C)N(C)C(=O)C[C@@H](C(=O)N2CCOCC2)N(C)C(=O)[C@H](C2CCCC2)N(C)C(=O)C2(CCC2)NC(=O)[C@@H]2C[C@@H](OCC)CN2C(=O)[C@H](CCc2ccc(C(F)(F)F)c(Cl)c2)NC(=O)CN(C)C(=O)[C@@H]1Cc1ccc(C(F)(F)F)cc1 [PP0397] ([NMeL]IG[Sar][NPrPhe(4-CF3)][Sar][hPhe(3-Cl-4-CF3)][Hyp](Et)[Ac4c][NMeGly(cPent)][NMeD]-Morpholide; lactam N-11) | 120 | C (A compound having a KD ratio of 0.1 or more and less than 3 is denoted as C) | C (A compound having a KD ratio of 0.1 or more and less than 3 is denoted as C)
12 | CCCN1C(=O)CN(C)C(=O)CN(CC)C(=O)[C@H]([C@@H](C)CC)NC(=O)[C@H](CC(C)C)N(C)C(=O)C[C@@H](C(=O)N2CCOCC2)N(C)C(=O)[C@H](C2CCCC2)N(C)C(=O)C2(CCCC2)NC(=O)[C@@H]2CC(F)(F)CN2C(=O)[C@H](CCc2ccc(C(F)(F)F)c(Cl)c2)NC(=O)CN(C)C(=O)[C@@H]1Cc1ccc(C(F)(F)F)cc1 [PP0399] ([NMeL]I[NEtG][Sar][NPrPhe(4-CF3)][Sar][hPhe(3-Cl-4-CF3)][Pro(4,4-F2)][Ac5c][NMeGly(cPent)][NMeD]-Morpholide; lactam N-11) | 330 | B (a compound having 3 or more and less than 10 is denoted as B) | C (A compound having a KD ratio of 0.1 or more and less than 3 is denoted as C)
